# Tested on: HCV replicon
# Test: HCV replicon replication assay (NPT level by captured ELISA)
# Format: cell-based
# Settings: Hepatitis C virus, 72 h; Huh-7 HCV replicon-containing cells, three days incubation; read-out: Activity (inhibition of HCV replicon replication)
# Description: Compounds claimed herein are tested for the ability to inhibit viral replication of the Hepatitis C replicon in cultured cells in which the HCV replicon construct has been incorporated. The HCV replicon system was described by Bartenschlager, et. al (Science, 285, pp. 110-113 (1999)). The replicon system is predictive of in vivo anti-HCV activity; compounds that are active in humans uniformly evidence activity in the replicon assay.
# In this assay HCV replicon containing cells are treated with different concentrations of the test compound to ascertain the ability of the test compound to suppress replication of the HCV replicon. As a positive control, HCV replicon-containing cells are treated with different concentrations of interferon alpha, a known inhibitor of HCV replication. The replicon assay system includes Neomycin Phosphotransferase (NPT) as a component of the replicon itself in order to detect the transcription of replicon gene products in the host cell. Cells in which the HCV replicon is actively replicating have high levels of NPT; the level of NPT is proportional to HCV replication. […] The NPT level of each sample is measured using a captured ELISA.
# A protocol for testing compounds for the ability to inhibit viral replication of the Hepatitis C replicon cultured cells in which the replicon construct has been incorporated, follows.
# The HCV replicon contains, 5′-3′, the HCV-IRES, the neomycin phosphotransferase (neo) gene, the IRES of encephalomyocarditis virus, which directs translation of HCV sequences NS3 to NS5B, and the 3′-NTR. The sequence of the HCV replicon has been deposited in GenBank (Accession no. AJ242652).
# The replicon is transfected into Huh-7 cells using standard methods such as electroporation.
# The equipment and materials include, but are not limited to, Huh-7 HCV replicon-containing cells, maintenance media (DMEM (Dulbecco's modified Eagle media) supplemented with 10% FBS, L-glutamine, non-essential amino acids, penicillin (100 units/ml), streptomycin (100 micrograms/ml), and 500 micrograms/ml of Geneticin (G418), screening media (DMEM supplemented with 10% FBS, L-glutamine, non-essential amino acids, penicillin (100 units/ml) and streptomycin (100 micrograms/ml)), 96 well tissue culture plates (flat bottom), 96 well plates (U bottom for drug dilution), Interferon alpha for positive control, fixation reagent (such as methanol: acetone), primary antibody (rabbit anti-NPTII), secondary antibody: Eu—N1 1, and enhancement solution.
# HCV replicon-containing cells are rinsed with once PBS once; 2 mls of trypsin are then added. Cells are incubated at 37° C. in a 5% CO2 incubator for 3-5 minutes. 10 mls of complete medium is added to stop the reaction. Cells are blown gently, put into a 15 ml tube, and spun at 1200 rpm for four minutes. The trypsin/medium solution is removed and 5 mls of medium (500 ml DMEM (high glucose)) from BRL catalog #12430-054; 50 mls 10% FBS, 5% Geneticin G418 (50 mg/ml, BRL catalog #10131-035), 5 ml MEM non-essential amino acids (100×BRL #11140-050) and 5 ml pen-strep (BRL #15140-148) is added. The cells and media are mixed carefully
# Cells are plated with screening medium (500 ml DMEM (BRL #21063-029), 50 ml FBS (BRL #10082-147) and 5 ml MEM non-essential amino acid (BRL #11140-050) at 6000-7500 cells/100 μl/well of 96 well plate (6-7.5×10^5 cells/10 ml/plate). Plates are placed into 37° C. 5% CO2 incubator overnight.
# The following morning, drugs (test compounds or interferon alpha) are diluted in 96 well U bottom plates with media or DMSO/media, depending on the final concentration chosen for screening. Generally for 6 concentrations of each test compounds ranging from 10 micromolar to 0.03 micromolar are applied. 100 μl of the test compound dilution is placed in wells of the 96 well plate containing the HCV replicon cells. Media without drug is added to some wells as a negative controls. DMSO is known to affect cell growth. […]
row,Structure (SMILES),EC50
1,"CCCCCCCCOc1ccc(Nc2nc(-c3ccc[n+](C)c3)cs2)cc1C(F)(F)F [Cmp 142, 1-methyl-3-(2-(4-(octyloxy)-3-(trifluoromethyl)phenylamino)thiazol-4-yl)pyridinium]",1000 to 10000 nM
2,CCCCCc1nc2cc(Nc3nc(-c4cccnc4)cs3)ccc2o1 [Cmp 64],< 1000 nM
3,CCCCCCc1ccc(Nc2nc(-c3cccnc3)c(F)s2)cc1C(F)(F)F [Cmp 112],< 1000 nM
4,"CCCCCCCCOc1ccc(Nc2nc(-c3cnc(OC)nc3)c(CN(C)C)s2)cc1C(F)(F)F [Cmp 121, 5-((dimethylamino)methyl)-4-(2-methoxypyrimidin-5-yl)-N-(4-(octyloxy)-3-(trifluoromethyl)phenyl)thiazol-2-amine]",1000 to 10000 nM
5,"CCCCCCCCc1ccc(Nc2nc(-c3ccccc3)c(CC(=O)O)s2)cc1C(F)(F)F [Cmp 219, 2-(2-(4-octyl-3-(trifluoromethyl)phenylamino)-4-phenylthiazol-5-yl)acetic acid]",1000 to 10000 nM
6,"Cc1ccc(Nc2nc(-c3cccnc3)cs2)cc1OCC1CCCCC1 [Cmp 38, N-(3-(cyclohexylmethoxy)-4-methylphenyl)-4-(pyridin-3-yl)thiazol-2-amine]",< 1000 nM
7,"CC(=O)c1cc(Nc2nc(-c3cccnc3)c(F)s2)ccc1Oc1ccccc1 [Cmp 81, 1-(5-(5-fluoro-4-(pyridin-3-yl)thiazol-2-ylamino)-2-phenoxyphenyl)ethanone]",< 1000 nM
8,"CCCCCCCCc1ccc(Nc2nc(-c3ccc4nncn4c3)cs2)cc1C(F)(F)F [Cmp 178, 4-([1,2,4]triazolo[4,3-a]pyridin-6-yl)-N-(4-octyl-3-(trifluoromethyl)phenyl)thiazol-2-amine]",< 1000 nM
9,"Cc1ccc(CCCCOc2cc(Nc3nc(-c4cccnc4)cs3)ccc2C(F)(F)F)cc1 [Cmp 125, 4-(pyridin-3-yl)-N-(3-(4-p-tolylbutoxy)-4-(trifluoromethyl)phenyl)thiazol-2-amine]",< 1000 nM
10,"CCCCCCCCOc1ccc(N(N)c2nc(-c3cccnc3)c(F)s2)cc1C(F)(F)F [Cmp 120, 5-fluoro-2-(1-(4-(octyloxy)-3-(trifluoromethyl)phenyl)hydrazinyl)-4-(pyridin-3-yl)thiazole]",< 1000 nM
11,"COc1ncc(-c2csc(Nc3ccc(C)c(OCC4CCCCC4)c3)n2)cn1 [Cmp 43, N-(3-(cyclohexylmethoxy)-4-methylphenyl)-4-(2-methoxypyrimidin-5-yl)thiazol-2-amine]",< 1000 nM
12,"CCCCCCCCOc1cc(Nc2nc(-c3ccc(F)cc3)c(F)s2)ccc1C [Cmp 62, 5-fluoro-4-(4-fluorophenyl)-N-(4-methyl-3-(octyloxy)phenyl)thiazol-2-amine]",< 1000 nM
13,"CCCCCCCCOc1ccc(Nc2nc(-c3ccsc3C(N)=O)c(F)s2)cc1C(F)(F)F [Cmp 188, 3-(5-fluoro-2-(4-(octyloxy)-3-(trifluoromethyl)phenylamino)thiazol-4-yl)thiophene-2-carboxamide]",< 1000 nM
14,"Fc1sc(Nc2ccc(C(F)(F)F)c(Oc3ccccc3)c2)nc1-c1cccnc1 [Cmp 108, 5-fluoro-N-(3-phenoxy-4-(trifluoromethyl)phenyl)-4-(pyridin-3-yl)thiazol-2-amine]",< 1000 nM
15,"CCCCCCCCOc1ccc(Nc2nc(-c3cccnc3)cs2)cc1C(N)=O [Cmp 156, 2-(octyloxy)-5-(4-(pyridin-3-yl)thiazol-2-ylamino)benzamide]",< 1000 nM
16,"COc1ncc(-c2csc(Nc3ccc(Oc4ccccc4)c(C(C)=O)c3)n2)cn1 [Cmp 86, 1-(5-(4-(2-methoxypyrimidin-5-yl)thiazol-2-ylamino)-2-phenoxyphenyl)ethanone]",< 1000 nM
17,"CC(C)(C)c1cc2cc(Nc3nc(-c4cccnc4)cs3)ccc2o1 [Cmp 150, N-(2-tert-butylbenzofuran-5-yl)-4-(pyridin-3-yl)thiazol-2-amine]",< 1000 nM
18,"Cc1cccc(OCCCc2ccc(Nc3nc(-c4cccnc4)cs3)cc2C(F)(F)F)c1 [Cmp 91, 4-(pyridin-3-yl)-N-(4-(3-(m-tolyloxy)propyl)-3-(trifluoromethyl)phenyl)thiazol-2-amine]",< 1000 nM
